Source: PMC12047801, “Disrupting the OTUD4-USP7 deubiquitinase complex to suppress herpesvirus replication: a novel antiviral strategy” (PLOS Pathogens, 2025)
Values joined by “and” are separate entries in the source; they are usually repeats but may differ in a detail not shown here. Equal values may be shown once. “Also recorded” adds a separate entry of the source. Read-outs that look alike come from different tables or passages of the source.

How the values were obtained:
[1] = tested on: KSHV genome replication in BCBL-1 cells; assay: Relative viral genomic copy number (latency) by qPCR in BCBL-1 cells; type: cell-based; details: 100 μM, 48 h
[2] = tested on: KSHV lytic gene expression in BCBL-1-Tet-K-RTA cells; type: cell-based
[3] = tested on: KSHV lytic gene expression in SLK.iBAC-GFP cells; type: cell-based
[4] = tested on: interaction between USP7 and ICP0; type: cell-based
USP7-TRAF domain = target: T1, USP7-TRAF domain (Homo sapiens, UniProt Q93009); assay: Surface plasmon resonance (SPR) analysis of peptide binding to USP7-TRAF
T1 construct: The TRAF domain of human and murine USP7 (1-208 aa) was subcloned into pGEX-6p-1; GST (N); made in house; host or cells: E. coli BL21 (DE3)

MHV68 in MLF cells = type: cell-based
MHV68 in NIH3T3 cells = type: cell-based
[5] = tested on: KSHV lytic reactivation in SLK.iBAC-GFP cells; type: cell-based
Method: (A) Graphical illustration showing the rationale underlying our peptide design. (B) Surface Plasmon Resonance (SPR) analysis assessing the interaction of the USP7-TRAF domain with the designed peptides p2 and p8. (C) SLK.iBAC-GFP cells were induced with doxycycline (Dox, 1 μg/mL) and sodium butyrate (0.5 mM) in the presence of the Tat fusion peptides (100 μM). All the peptides were fused to an N-terminal Tat47-57 peptide ([…]) via a flexible GG linker. The supernatants containing infectious virions were collected 48 h post-induction and used to infect HEK293T cells. KSHV infectious units were calculated based on the percentage of GFP-positive cells determined by flow cytometry. Data are mean ± s.d. of N = 3 independent biological replicates. (D) SLK.iBAC-GFP cells were induced with doxycycline (Dox, 1 μg/mL) and sodium butyrate (0.5 mM) in the presence of increasing amount of p8 (0, 10, 50, 100 μM). KSHV infectious units were determined 48 h post-induction. Data are mean ± s.d. of N = 3 independent biological replicates. […] Data are mean ± s.d. of N = 3 independent biological replicates. […] Cell viability was assessed by measuring ATP levels 48 h post-induction. Data are mean ± s.d. of N = 3 independent biological replicates.
Peptides p1 to p12 (S1A Fig) were synthesized by Sangon Biotech (Shanghai, China) with 95% purity. The Tat-fused peptides in Fig 1C consisted of the corresponding peptides conjugated to the Tat47-57 peptide ([…]) and two glycine linker residues (QYAOBIO, Suzhou, China). The peptides p8-DRI (nssqsasqnvpprrrqrrkkrGy) and p2-DRI (iesndedavepprrrqrrkkrGy) were synthesized using D-amino acids in a retro-reversed sequence with 95% purity (QYAOBIO, Suzhou, China). The peptide p8-m ([…]) was synthesized with 95% purity (QYAOBIO, Suzhou, China). All the peptides were acetylated at the N-terminus and amidated at the C-terminus to mimic the native peptide structure. The peptides were dissolved in PBS to prepare 1 mM stock solutions for in vitro experiments and 5 mg/ml stock solutions for in vivo experiments.
SLK.iBAC-GFP cells were treated with Dox (1 μg/ml) and sodium butyrate (0.5 mM) to induce lytic reactivation in the presence of indicated peptides (100 μM). The supernatants were collected at the specified time points and used to infect HEK293T cells at appropriate dilutions. The infected cells were collected, fixed, and analyzed by flow cytometry 24 h post-infection. FlowJo 10.0 software was used to analyze the data, and KSHV infectious units were quantified based on the percentage of GFP-positive cells.

[6] = tested on: KSHV lytic reactivation in OTUD4- or USP7-knockdown SLK.iBAC-GFP cells; type: cell-based
RTA in HEK293T cells = type: cell-based, KSHV
[7] = tested on: interaction between USP7 and p53; type: cell-based
[8] = tested on: KSHV-RTA-WT lytic reactivation; type: cell-based
[9] = tested on: KSHV latent gene transcription in BCBL-1 cells; type: cell-based
[10] = tested on: interaction between USP7 and MDM2; type: cell-based
[11] = tested on: KSHV lytic replication in BCBL-1-Tet-K-RTA cells; type: cell-based
[12] = tested on: interaction between murine USP7-TRAF and murine OTUD4; type: binding; details: GST pull-down
[13] = tested on: interaction between OTUD4 and USP7-TRAF; assay: GST pull-down competition assay, human USP7-TRAF and FLAG-OTUD4; type: binding; details: 100 μM, 4 h
[14] = tested on: OTUD4-USP7 interaction in FLAG-OTUD4-expressing SLK.iBAC-GFP cells; type: cell-based
[15] = tested on: KSHV viral proteins in BCBL-1-Tet-K-RTA cells; type: cell-based; details: 100 μM
RTA in iSLK cells = type: cell-based, KSHV
SLK.iBAC-GFP cells = type: cell-based; details: Fig. 1F, 100 μM, 48 h
Method: SLK.iBAC-GFP cells were seeded in a 96-well plate at a density of 1 × 10^5 cells/well. The cells were then treated with doxycycline (Dox, 1 μg/ml) and sodium butyrate (0.5 mM) to induce lytic reactivation in the presence of the indicated peptides (100 μM) for 48 h. After treatment and a 30-min equilibration at room temperature, CellTiter-Glo Reagent (Promega, G7570) was added in equal volumes to culture medium. Plates underwent orbital shaking (2 min) for lysis, followed by a 10-min incubation for signal stabilization and luminescence recording (0.25-1 sec integration).

[16] = tested on: KSHV lytic replication in SLK.iBAC-GFP cells transduced with vector control or OTUD4; type: cell-based; parameters: KSHV infectious units: unit not given here

T1 sequence (Q93009 1-208): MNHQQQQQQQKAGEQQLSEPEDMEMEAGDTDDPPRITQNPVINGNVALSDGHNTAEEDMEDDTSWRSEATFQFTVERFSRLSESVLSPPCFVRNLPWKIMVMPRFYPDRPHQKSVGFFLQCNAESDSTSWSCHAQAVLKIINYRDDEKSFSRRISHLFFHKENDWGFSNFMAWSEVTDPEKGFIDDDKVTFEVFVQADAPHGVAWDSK

## Ac-YGRKKRRQRRRGGVNQSASQSSN-NH2 [p8]
[1]
  KSHV genome replication in latency (in words): did not affect KSHV latent gene transcription or genome replication
[2]
  ORF25 gene expression: 0.73 and 0.71
  ORF26 gene expression: 0.38 and 0.45 and 0.4
  ORF50 gene expression: 0.4 and 0.44 and 0.49
  ORF56 gene expression: 0.63 and 0.69 and 0.67
  ORF57 gene expression: 0.5 and 0.43 and 0.54
[2]; 100 μM
  Transcription of KSHV lytic genes (in words): decreased transcription of KSHV lytic genes
[3]
  ORF25 gene expression: 0.63 and 0.71 and 0.72
  ORF26 gene expression: 0.64 and 0.65 and 0.71
  ORF50 gene expression: 0.69 and 0.8
  ORF56 gene expression: 0.84 and 0.81 and 0.83
  ORF57 gene expression: 0.74 and 0.75
  Transcription levels of ORF50, ORF56, ORF57, ORF25, ORF26 (in words): decreased the transcription levels of multiple viral genes
[4]
  Effect on USP7-ICP0 interaction (in words): did not affect the interactions
USP7-TRAF domain
  Binding to the USP7-TRAF domain (in words): specifically bound to the USP7-TRAF domain
MHV68 in MLF cells
  Antiviral activity against MHV68 in MLF cells (in words): potent antiviral activity against MHV68
  ORF9 viral gene expression: 0.54 and 0.47 and 0.53
  ORF25 viral gene expression: 0.37 and 0.47 and 0.44
  ORF50 viral gene expression: 0.77 and 0.82 and 0.65
MHV68 in NIH3T3 cells
  Antiviral activity against MHV68 in NIH3T3 cells (in words): potent antiviral activity against MHV68
  ORF9 viral gene expression: 0.25 and 0.26
  ORF25 viral gene expression: 0.28 and 0.26
  ORF50 viral gene expression: 0.24 and 0.22 and 0.27
[5]; S2E Fig, 100 μM
  KSHV progeny virion production (in words): significantly reduced KSHV progeny virion production
[5]; Tat-fused peptides, 100 μM or dose series, 48 h post-induction
  Inhibition of KSHV lytic reactivation (in words): effectively inhibited KSHV lytic reactivation in a dose-dependent manner; also recorded: efficiently suppressed KSHV lytic reactivation
[6]
  Antiviral effect in OTUD4-deficient or USP7-deficient cells (in words): abolished
RTA in HEK293T cells
  Effect on OTUD4-enhanced RTA protein level (in words): countered the promoting effect
[7]
  Effect on USP7-p53 interaction (in words): did not affect the interactions
[8]
  KSHV infectious units: 1.8648 and 1.9224 and 1.6488
[9]
  ORF71 mRNA expression: 1.01 and 1.03
  ORF72 mRNA expression: 1.27 and 1.18 and 1.09
  ORF73 mRNA expression: 0.87 and 0.86 and 0.96
[9]; 100 μM, 48 h
  KSHV latent gene transcription (in words): did not affect KSHV latent gene transcription
[10]
  Effect on USP7-MDM2 interaction (in words): did not affect the interactions
[11]
  KSHV genome copies in supernatants: 1.3 and 1.45 and 1.47
[11]; 100 μM, 48 h
  Progeny viral genomic copy number (in words): reduced progeny viral genomic copy number
[12]; 100 μM (S5E Fig)
  Relative inhibitory activity on murine USP7-TRAF/murine OTUD4 interaction, p8 vs p8-m (in words): slightly stronger inhibitory activity
[12]; 100 μM, 4 h (S5E Fig)
  Disruption of murine USP7-TRAF/murine OTUD4 interaction (in words): effectively disrupted the interaction
[13]
  Disruption of OTUD4/USP7-TRAF interaction (in words): effectively blocked the interaction between OTUD4 and USP7-TRAF
[14]
  Co-localization of OTUD4 and USP7 (in words): disrupted the co-localization of OTUD4 and USP7
[15]
  Viral protein levels (in words): lower levels of viral proteins
RTA in iSLK cells
  RTA protein level in iSLK cells (in words): reduced the protein level of RTA
SLK.iBAC-GFP cells
  Cytotoxicity (in words): minimal cytotoxicity
SLK.iBAC-GFP cells; replicate 1
  Cell viability (ATP levels): 91.6982
SLK.iBAC-GFP cells; replicate 2
  Cell viability (ATP levels): 88.8817
SLK.iBAC-GFP cells; replicate 3
  Cell viability (ATP levels): 95.2836
[16]
  Effect on OTUD4-promoted KSHV lytic replication (in words): negated by p8
  KSHV infectious units: 6.7 and 4.8 and 4.4 and 5.5 and 6.5 and 6.3
